The numbers were not newly measured in patent US7612036B2, “Peptoid compounds” (University of Wollongong, priority 2001, dated 2009), which cites them from elsewhere.

The conditions of the data set: cited from earlier work.

Turning to `Cl.Cl.NCC(O)CC1NC(=O)C(N)Cc2cc(ccc2O)-c2ccc(O)c(c2)C(O)C(C(=O)O)NC1=O` (stereo not shown) [Biphenomycin A], the toxicity in mice result is reported as “low toxicity”.
